For assay [1], the target named is T1, ΔF508-CFTR (Homo sapiens, UniProt P13569, DEL508-508).
T1 construct: host or cells: CFBE41o-, doxycycline-inducible
The assay can be described thus: CFTR cell surface levels using HRP-tagged ΔF508-CFTR expressing CFBE cells, intrinsic corrector capacity. Also on record: % Activation: concentration or dose not given beside the values. It is filed as cell-based. In a few lines: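 Surface ΔF508-CFTR was measured as HRP chemiluminescence from an extracellular-loop-4 tag, expressed as percent activity between DMSO and a […] corrector control.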

The target of assay [2] is T1, ΔF508-CFTR. The assay can be described thus: CFTR cell surface levels using HRP-tagged ΔF508-CFTR expressing CFBE cells, in the presence of a co-corrector. It is filed as cell-based. The gist of the method:
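Chemiluminescent read-out of surface HRP (15 min, dark) after PBS washes. Activity is normalized as 100×(sample−DMSO)/(3 μM co-corrector alone−DMSO).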

The mark [3] stands for this setting: HRP-tagged ΔF508-CFTR expressing CFBE41o- cells, compound alone (intrinsic corrector capacity), 20 hours at 33° C.
[4] abbreviates: HRP-tagged ΔF508-CFTR expressing CFBE41o- cells, compound alone (intrinsic corrector capacity), 20 hours at 33° C., read-out: EC50.
[5] abbreviates: HRP-tagged ΔF508-CFTR CFBE cells, in the presence of 3 μM co-corrector.
Where [6] appears, read: HRP-tagged ΔF508-CFTR CFBE cells, in the presence of 3 μM co-corrector, read-out: EC50.

T1 sequence (P13569 with tags, fused parts or gaps DEL508-508): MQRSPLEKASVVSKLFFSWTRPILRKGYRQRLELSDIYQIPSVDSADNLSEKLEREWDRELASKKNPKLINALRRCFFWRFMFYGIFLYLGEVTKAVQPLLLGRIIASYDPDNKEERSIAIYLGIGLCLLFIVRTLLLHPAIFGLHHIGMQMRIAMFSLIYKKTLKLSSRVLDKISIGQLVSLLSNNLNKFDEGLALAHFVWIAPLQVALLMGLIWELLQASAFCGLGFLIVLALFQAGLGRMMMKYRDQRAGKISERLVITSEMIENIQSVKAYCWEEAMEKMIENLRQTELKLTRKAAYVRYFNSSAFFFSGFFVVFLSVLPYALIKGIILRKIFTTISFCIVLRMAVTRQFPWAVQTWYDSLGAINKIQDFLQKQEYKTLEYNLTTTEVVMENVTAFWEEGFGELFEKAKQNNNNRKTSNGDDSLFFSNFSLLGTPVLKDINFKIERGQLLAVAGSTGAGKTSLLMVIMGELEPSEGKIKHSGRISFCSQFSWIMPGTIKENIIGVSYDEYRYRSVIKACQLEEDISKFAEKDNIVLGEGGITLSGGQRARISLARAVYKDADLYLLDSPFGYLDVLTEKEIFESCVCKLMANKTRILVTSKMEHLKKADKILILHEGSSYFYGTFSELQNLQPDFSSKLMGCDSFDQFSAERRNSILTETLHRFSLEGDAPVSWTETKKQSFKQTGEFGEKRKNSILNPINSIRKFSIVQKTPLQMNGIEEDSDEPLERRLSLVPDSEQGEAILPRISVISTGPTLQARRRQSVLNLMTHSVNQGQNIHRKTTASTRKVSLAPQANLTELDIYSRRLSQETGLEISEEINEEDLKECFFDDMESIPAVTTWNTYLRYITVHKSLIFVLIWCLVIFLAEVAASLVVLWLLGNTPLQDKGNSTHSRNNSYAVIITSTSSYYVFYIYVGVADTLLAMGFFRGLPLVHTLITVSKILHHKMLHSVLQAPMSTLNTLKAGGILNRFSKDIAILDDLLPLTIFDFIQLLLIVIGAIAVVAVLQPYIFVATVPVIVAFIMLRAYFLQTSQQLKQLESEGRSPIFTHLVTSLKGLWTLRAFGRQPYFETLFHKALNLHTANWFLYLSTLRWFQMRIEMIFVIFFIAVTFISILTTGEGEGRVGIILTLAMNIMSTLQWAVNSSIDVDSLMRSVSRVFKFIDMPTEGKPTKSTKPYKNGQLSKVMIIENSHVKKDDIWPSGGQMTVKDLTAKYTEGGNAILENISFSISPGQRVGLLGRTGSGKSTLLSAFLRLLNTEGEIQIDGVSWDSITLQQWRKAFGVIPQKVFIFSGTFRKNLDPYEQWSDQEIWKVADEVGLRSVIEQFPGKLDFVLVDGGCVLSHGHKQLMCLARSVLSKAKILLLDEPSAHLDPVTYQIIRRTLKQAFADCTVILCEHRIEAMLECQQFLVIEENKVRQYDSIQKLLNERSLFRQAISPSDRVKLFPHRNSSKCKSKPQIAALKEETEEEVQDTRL

As to `CC(C)c1nn(-c2ccnc(N3CCOCC3)c2)c2nc(C(=O)NS(C)(=O)=O)cc(OCC3CCOCC3)c12` [Compound 336, N-(methanesulfonyl)-1-[2-(morpholin-4-yl)pyridin-4-yl]-4-[(oxan-4-yl)methoxy]-3-(propan-2-yl)-1H-pyrazolo[3,4-b]pyridine-6-carboxamide], the “% Activation” value is reported as 107.2% in assay [1] (setting [3]) and 232.42% in assay [2] (setting [5]). For the same compound, the figures for the EC50 in assay [1] (setting [4]) and in assay [2] (setting [6]) were 420 nM and 282 nM, respectively.
For `CC(C)c1nn(-c2ccc(F)cc2)c2nc(C(=O)NS(C)(=O)=O)cc(N3CCNC(C(F)(F)F)C3)c12` (stereo not shown) [Compound 339, 1-(4-fluorophenyl)-N-(methanesulfonyl)-3-(propan-2-yl)-4-[3-(trifluoromethyl)piperazin-1-yl]-1H-pyrazolo[3,4-b]pyridine-6-carboxamide], the “% Activation” value in assay [1] (setting [3]) came out at 142.05%; in assay [2] (setting [5]), 295.5%. In addition, the EC50 (in general, the concentration at which the effect is half-maximal) stood at 1400 nM in assay [1] (setting [4]) and 402 nM in assay [2] (setting [6]).
In the case of `COCCOCC1(F)CCCN(c2cc(C(=O)NS(C)(=O)=O)nc3c2c(C(C)C)nn3-c2ccc(F)cc2)C1` (stereo not shown) [Compound 346, 4-{3-fluoro-3-[(2-methoxyethoxy)methyl]piperidin-1-yl}-1-(4-fluorophenyl)-N-(methanesulfonyl)-3-(propan-2-yl)-1H-pyrazolo[3,4-b]pyridine-6-carboxamide], the figures for the “% Activation” value in assay [1] (setting [3]) and in assay [2] (setting [5]) were 195.8% and 375.1%, respectively. In addition, the EC50 in assay [1] (setting [4]) amounted to 308 nM; in assay [2] (setting [6]), 253 nM.
As to `O=C(NS(=O)(=O)CCCN1CCOCC1)c1cc(OCC2CCOCC2)c2c(C3CCC3)nn(-c3ccccc3)c2n1` [Compound 347, 3-cyclobutyl-N-[3-(morpholin-4-yl)propane-1-sulfonyl]-4-[(oxan-4-yl)methoxy]-1-phenyl-1H-pyrazolo[3,4-b]pyridine-6-carboxamide], the results for the EC50 in assay [1] and in assay [2] were 263 nM and 54.3 nM, respectively. For the same compound, the figures for the “% Activation” value in assay [1] (setting [3]) and in assay [2] (setting [5]) were 131.4% and 301.15%, respectively.
In the case of `CS(=O)(=O)NC(=O)c1cc(N2CCC[C@@H](CO)C2)c2c(C3CCC3)nn(-c3ccccc3)c2n1` [Compound 349, 3-cyclobutyl-4-[(3R)-3-(hydroxymethyl)piperidin-1-yl]-N-(methanesulfonyl)-1-phenyl-1H-pyrazolo[3,4-b]pyridine-6-carboxamide], the EC50 in assay [1] came out at 512 nM; in assay [2] it was 424 nM. Also, the entries for the “% Activation” value in assay [1] (setting [3]) and in assay [2] (setting [5]) were 161.7% and 327.9%, respectively.
The like results for `O=C(NS(=O)(=O)CCCN1CCOCC1)c1cc(N2CCC[C@@H](CO)C2)c2c(C3CCC3)nn(-c3ccccc3)c2n1` [Compound 350, 3-cyclobutyl-4-[(3R)-3-(hydroxymethyl)piperidin-1-yl]-N-[3-(morpholin-4-yl)propane-1-sulfonyl]-1-phenyl-1H-pyrazolo[3,4-b]pyridine-6-carboxamide] were, in that order, 357 nM, 287 nM, 104.21% and 274.6%.
For the compound `O=C(NS(=O)(=O)N1CCC(N2CCCC2)CC1)c1cc(OCC2CCOCC2)c2c(C3CCC3)nn(-c3ccccc3)c2n1` [Compound 351, 3-cyclobutyl-4-[(oxan-4-yl)methoxy]-1-phenyl-N-[4-(pyrrolidin-1-yl)piperidine-1-sulfonyl]-1H-pyrazolo[3,4-b]pyridine-6-carboxamide], the “% Activation” value in assay [1] (setting [3]) amounted to 50.87%; in assay [2] (setting [5]), 232.5%. Further, the values for the EC50 in assay [1] (setting [4]) and in assay [2] (setting [6]) were 73.5 nM and 81.1 nM, respectively.
`CN1CCN(C(=O)[C@@H]2CCCN2S(=O)(=O)NC(=O)c2cc(OCC3CCOCC3)c3c(C4CCC4)nn(-c4ccccc4)c3n2)CC1` [Compound 352, 3-cyclobutyl-N-[(2S)-2-(4-methylpiperazine-1-carbonyl)pyrrolidine-1-sulfonyl]-4-[(oxan-4-yl)methoxy]-1-phenyl-1H-pyrazolo[3,4-b]pyridine-6-carboxamide]: the results for the “% Activation” value in assay [1] (setting [3]) and in assay [2] (setting [5]) were 27.44% and 158.4%, respectively. The EC50 in assay [1] (setting [4]) is 5000 nM; in assay [2] (setting [6]), 2780 nM.
For `O=C(NS(=O)(=O)N1CCC(N2CCCCC2)CC1)c1cc(OCC2CCOCC2)c2c(C3CCC3)nn(-c3ccccc3)c2n1` [Compound 353, N-([1,4'-bipiperidine]-1'-sulfonyl)-3-cyclobutyl-4-[(oxan-4-yl)methoxy]-1-phenyl-1H-pyrazolo[3,4-b]pyridine-6-carboxamide] the same measures were 56.22%, 193.45%, 87.9 nM and 346 nM.
Turning to `CCCN(C)S(=O)(=O)NC(=O)c1cc(OCC2CCOCC2)c2c(C3CCC3)nn(-c3ccccc3)c2n1` [Compound 354, 3-cyclobutyl-N-[methyl(propyl)sulfamoyl]-4-[(oxan-4-yl)methoxy]-1-phenyl-1H-pyrazolo[3,4-b]pyridine-6-carboxamide], the “% Activation” value in assay [1] (setting [3]) was 113.7%; in assay [2] (setting [5]), 351%. In addition, the EC50 in assay [1] (setting [4]) stood at 123 nM; in assay [2] (setting [6]), 232 nM.
`CCCN(CC)S(=O)(=O)NC(=O)c1cc(OCC2CCOCC2)c2c(C3CCC3)nn(-c3ccccc3)c2n1` [Compound 355, 3-cyclobutyl-N-[ethyl(propyl)sulfamoyl]-4-[(oxan-4-yl)methoxy]-1-phenyl-1H-pyrazolo[3,4-b]pyridine-6-carboxamide]: the “% Activation” value turned out to be 102.4% in assay [1] (setting [3]) and 278.4% in assay [2] (setting [5]). Further, the EC50 stood at 161 nM in assay [1] (setting [4]) and 377 nM in assay [2] (setting [6]).
Consider `CCOC(=O)N1CCC(NS(=O)(=O)NC(=O)c2cc(OCC3CCOCC3)c3c(C4CCC4)nn(-c4ccccc4)c3n2)CC1` [Compound 356, ethyl 4-[({3-cyclobutyl-4-[(oxan-4-yl)methoxy]-1-phenyl-1H-pyrazolo[3,4-b]pyridine-6-carbonyl}sulfamoyl)amino]piperidine-1-carboxylate], for which the “% Activation” value in assay [1] (setting [3]) is listed as 188.25%; in assay [2] (setting [5]), 372%. Besides, the figures for the EC50 in assay [1] (setting [4]) and in assay [2] (setting [6]) were 105 nM and 48.3 nM, respectively.
Consider `CC(=O)N1CCCN(S(=O)(=O)NC(=O)c2cc(OCC3CCOCC3)c3c(C4CCC4)nn(-c4ccccc4)c3n2)CC1` [Compound 357, N-(4-acetyl-1,4-diazepane-1-sulfonyl)-3-cyclobutyl-4-[(oxan-4-yl)methoxy]-1-phenyl-1H-pyrazolo[3,4-b]pyridine-6-carboxamide], for which the “% Activation” value in assay [1] (setting [3]) was 72.83%; in assay [2] (setting [5]) it was 229.8%. In addition, the EC50 came out at 115 nM in assay [1] (setting [4]) and 130 nM in assay [2] (setting [6]).
Take `COCC1CCN(c2cc(C(=O)NS(=O)(=O)CCO)nc3c2c(C2CCC2)nn3-c2ccccc2)CC1` [Compound 366, 3-cyclobutyl-N-(2-hydroxyethanesulfonyl)-4-[4-(methoxymethyl)piperidin-1-yl]-1-phenyl-1H-pyrazolo[3,4-b]pyridine-6-carboxamide]: the figures for the “% Activation” value in assay [1] (setting [3]) and in assay [2] (setting [5]) were 264% and 443.7%, respectively. In addition, the EC50 worked out at 298 nM in assay [1] (setting [4]) and 82.7 nM in assay [2] (setting [6]).
For `COCC1CCN(c2cc(C(=O)NS(=O)(=O)CCCO)nc3c2c(C2CCC2)nn3-c2ccccc2)CC1` [Compound 367, 3-cyclobutyl-N-(3-hydroxypropane-1-sulfonyl)-4-[4-(methoxymethyl)piperidin-1-yl]-1-phenyl-1H-pyrazolo[3,4-b]pyridine-6-carboxamide], the “% Activation” value is 364.5% in assay [1] (setting [3]) and 526.17% in assay [2] (setting [5]). The EC50 worked out at 311 nM in assay [1] (setting [4]) and 81.6 nM in assay [2] (setting [6]).
Consider `COCC1CCN(c2cc(C(=O)NS(=O)(=O)C3CCNCC3)nc3c2c(C2CCC2)nn3-c2ccccc2)CC1` [Compound 368, 3-cyclobutyl-4-[4-(methoxymethyl)piperidin-1-yl]-1-phenyl-N-(piperidine-4-sulfonyl)-1H-pyrazolo[3,4-b]pyridine-6-carboxamide], for which the “% Activation” value in assay [1] (setting [3]) was determined as 185%; in assay [2] (setting [5]), 350.23%. Besides, the figures for the EC50 in assay [1] (setting [4]) and in assay [2] (setting [6]) were 1360 nM and 361 nM, respectively.
For the compound `CS(=O)(=O)NC(=O)c1cc(N2CCS(=O)(=O)CC2)c2c(C3CCC3)nn(-c3ccccc3)c2n1` [Compound 371, 3-cyclobutyl-4-(1,1-dioxo-1λ^6,4-thiazinan-4-yl)-N-(methanesulfonyl)-1-phenyl-1H-pyrazolo[3,4-b]pyridine-6-carboxamide], the “% Activation” value in assay [1] (setting [3]) is 121.3%; in assay [2] (setting [5]), 271.9%. The EC50 in assay [1] (setting [4]) came to 2740 nM; in assay [2] (setting [6]), 1930 nM.
Consider `COCC1CCN(c2cc(C(=O)NS(=O)(=O)CCNC(=O)OCc3ccccc3)nc3c2c(C2CCC2)nn3-c2ccccc2)CC1` [Compound 373, benzyl [2-({3-cyclobutyl-4-[4-(methoxymethyl)piperidin-1-yl]-1-phenyl-1H-pyrazolo[3,4-b]pyridine-6-carbonyl}sulfamoyl)ethyl]carbamate], for which the entries for the “% Activation” value in assay [1] (setting [3]) and in assay [2] (setting [5]) were 368.2% and 580.5%, respectively. Further, the results for the EC50 in assay [1] (setting [4]) and in assay [2] (setting [6]) were 73 nM and 85.8 nM, respectively.
As to `COCC1CCN(c2cc(C(=O)NS(=O)(=O)C3(C)CC3)nc3c2c(C2CCC2)nn3-c2ccccc2)CC1` [Compound 374, 3-cyclobutyl-4-[4-(methoxymethyl)piperidin-1-yl]-N-(1-methylcyclopropane-1-sulfonyl)-1-phenyl-1H-pyrazolo[3,4-b]pyridine-6-carboxamide], the “% Activation” value amounted to 240.7% in assay [1] (setting [3]) and 426.05% in assay [2] (setting [5]). Further, the EC50 in assay [1] (setting [4]) amounted to 254 nM; in assay [2] (setting [6]), 196 nM.

For the origin of these results see patent US10259810B2, “N-sulfonylated pyrazolo[3,4-b]pyridin-6-carboxamides and method of use” (AbbVie S.à.r.l., priority 2015, dated 2019).
